The source of these data is US20240336897A1, “COMPOSITIONS AND METHODS FOR CELL REPROGRAMMING” (CORNELL UNIVERSITY, priority 2021, published 2024).

In assay [1] the test system is biPSCs. Kind of assay: Base medium lacking individual inhibitors for GSK3β, MEK1/2 or TGFβ/activin/nodal. To be noted: GMTi base medium lacking this inhibitor.
Experimental: (§1) The biPSC colonies emerging from reprogramming trials were manually picked, dissociated into single cells using TrypLE™ (ThermoFisher) and plated on iMEFs in GMTi medium. For passaging, confluent cultures of biPSCs were rinsed once with PBS and incubated with TrypLE for 5 minutes. Cells were then collected in fibroblast medium, and centrifuged at 200×rcf for 5 minutes. The pellet was then resuspended in GMTi medium for plating on iMEFs. Passaging of biPSCs was performed repeatedly (every 3-4 days), with concurrent examination and imaging of morphology, growth characteristics and expression of PSC markers. […] Base medium conditions lacking individual inhibitors for GSK3β, MEK1/2 or TGFβ/activin/nodal were also prepared and tested for their ability to sustain pluripotent cultures. All cultures were maintained in a humidified incubator at 37° C. under an atmosphere of 5% CO2.
In assay [2] the test system is biPSCs. To be noted: MEK1/2 and GSK3B inhibitors used together; cited from earlier work.
Assay [3] deals with biPSCs. Kind of assay: Sustenance of biPSCs using specific pathway inhibition (GMTi medium): repeated passaging, morphology. To be noted: at least over a few passages, cell morphology.
Experimental: as §1

For `Cc1cccc(-c2nn(C(=S)Nc3ccccc3)cc2-c2ccnc3ccccc23)n1` [A83-01], the “effect of removing the single inhibitor from biPSC cultures” value in assay [1] is listed as “resulted in differentiation”. For `Cc1c[nH]c(-c2cnc(NCCNc3ccc(C#N)cn3)nc2-c2ccc(Cl)cc2Cl)n1` [CHIR99021], in assay [1], the “effect of removing the single inhibitor from biPSC cultures” value was “resulted in differentiation”. Also, the “effect on biPSCs” value in assay [2] was “suspend biPSCs in a pluripotent state, but without the ability to proliferate”. Regarding `O=C(NOC[C@H](O)CO)c1ccc(F)c(F)c1Nc1ccc(I)cc1F` [PD0325901], the “effect on biPSCs” value in assay [2] is on record as “suspend biPSCs in a pluripotent state, but without the ability to proliferate”.

For the compound “IL6: interleukin 6, leukemia inhibitory factor family member”, in assay [3], the “effect of excluding the factor from the GMTi medium on biPSCs” value is on record as “did not negatively affect biPSCs”. Consider LIF: human leukemia inhibitory factor, for which the “effect of excluding the factor from the GMTi medium on biPSCs” value in assay [3] is listed as “did not negatively affect biPSCs”.
